From publication PMC7377239, “Cardiovascular Effects of Polychlorinated Biphenyls and Their Major Metabolites” (Environmental Health Perspectives, 2020)
Structures can show the parent of a compound that is named as a salt. Where two headings read alike, the source gives them in different places.

Tests used:
[1] = system: iCell endothelial cells (human iPSC-derived ECs); test: High-content imaging cytotoxicity in iCell endothelial cells, 24 h; type: cell-based; conditions: iPSC-EC; for viability at 0.01 µM / activity at 0.01 µM / viability at 0.1 µM / activity at 0.1 µM / viability at 1 µM / activity at 1 µM / viability at 10 µM / activity at 10 µM / viability at 100 µM / activity at 100 µM / minimal effective concentration: Homo sapiens, Endothelial cell, 24 hr; for minimal effective concentration: top concentration 100.00 µM; for endo.cyto.24hr / endo.mito.24hr / endo.mitoint.24hr / endo.nma.24hr / endo.tc.24hrs: 0.00 µM = 100.00
In short: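 Readouts were vehicle-normalised and fitted to a four-parameter logistic model. POD was set at one SD beyond 0.5% DMSO control means, and 100 µM was assigned when no response was seen. Cells were monolayers of iCell endothelial cells imaged after 24 h compound exposure using nuclear, mitochondrial and calcein dyes.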

[2] = system: HUVECs; test: Tube formation (tubulogenesis) assay in HUVECs, 18 h; type: cell-based, human; conditions: for activity at 0.01 µM / activity at 0.1 µM / activity at 1 µM / activity at 10 µM / activity at 100 µM / minimal effective concentration: Homo sapiens, HUVEC, 18 h, HUVECs; for activity at 0.1 µM: 0.10 µM; for minimal effective concentration: top concentration 100.00 µM; for huvec.mtl.18hr / huvec.tlps.18hr / huvec.tta.18hr / huvec.ttl.18hr: HUVECs tube formation, 0.00 µM = 100.00
In short: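 HUVECs (passage 1–5) seeded on reduced-growth-factor basement membrane and exposed to compounds overnight at 37°C, 5% CO2, in 2× maintenance medium with 12.5 ng/mL VEGF; 0.5% DMSO vehicle. Calcein AM-stained tube networks imaged and analysed; vehicle-normalized readouts fit to four-parameter logistic, POD set at one SD of vehicle means.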

[3] = 0.00 µM = 100.00, read-out: huvec.mtl.18hr
[4] = 0.00 µM = 100.00, read-out: huvec.tlps.18hr
[5] = 0.00 µM = 100.00, read-out: huvec.tta.18hr
[6] = 0.00 µM = 100.00, read-out: huvec.ttl.18hr

For `O=S(=O)(O)Oc1cc(Cl)ccc1-c1ccccc1` [2-yl PCB 3 sulfate], the viability at 0.01 µM ([1]; 0.01 µM, 0.00 µM control = 100.00, read-out: endo.cyto.24hr) was 93%, the activity at 0.01 µM ([1]; 0.01 µM, 0.00 µM control = 100.00, read-out: endo.mito.24hr) was 93.3% and the activity at 0.01 µM ([1]; 0.01 µM, 0.00 µM control = 100.00, read-out: endo.mitoint.24hr) was 114%. The activity at 0.01 µM ([1]; 0.01 µM, 0.00 µM control = 100.00, read-out: endo.nma.24hr) was 103%, the viability at 0.01 µM ([1]; 0.01 µM, 0.00 µM control = 100.00, read-out: endo.tc.24hrs) was 93% and the viability at 0.1 µM ([1]; 0.10 µM, 0.00 µM control = 100.00, read-out: endo.cyto.24hr) was 97.1%. It also gave an activity at 0.1 µM ([1]; 0.10 µM, 0.00 µM control = 100.00, read-out: endo.mito.24hr) of 97%, an activity at 0.1 µM ([1]; 0.10 µM, 0.00 µM control = 100.00, read-out: endo.mitoint.24hr) of 101% and an activity at 0.1 µM ([1]; 0.10 µM, 0.00 µM control = 100.00, read-out: endo.nma.24hr) of 100%. The viability at 0.1 µM ([1]; 0.10 µM, 0.00 µM control = 100.00, read-out: endo.tc.24hrs) was 97.1%, the viability at 1 µM ([1]; 1.00 µM, 0.00 µM control = 100.00, read-out: endo.cyto.24hr) was 97.8% and the activity at 1 µM ([1]; 1.00 µM, 0.00 µM control = 100.00, read-out: endo.mito.24hr) was 98.5%. The activity at 1 µM ([1]; 1.00 µM, 0.00 µM control = 100.00, read-out: endo.mitoint.24hr) was 104%, the activity at 1 µM ([1]; 1.00 µM, 0.00 µM control = 100.00, read-out: endo.nma.24hr) was 99.6% and the viability at 1 µM ([1]; 1.00 µM, 0.00 µM control = 100.00, read-out: endo.tc.24hrs) was 97.8%. The viability at 10 µM ([1]; 10.00 µM, 0.00 µM control = 100.00, read-out: endo.cyto.24hr) was 97.1%, the activity at 10 µM ([1]; 10.00 µM, 0.00 µM control = 100.00, read-out: endo.mito.24hr) was 97.8% and the activity at 10 µM ([1]; 10.00 µM, 0.00 µM control = 100.00, read-out: endo.mitoint.24hr) was 118%. It also gave an activity at 10 µM ([1]; 10.00 µM, 0.00 µM control = 100.00, read-out: endo.nma.24hr) of 99.1%, a viability at 10 µM ([1]; 10.00 µM, 0.00 µM control = 100.00, read-out: endo.tc.24hrs) of 97.2% and a viability at 100 µM ([1]; 100.00 µM, 0.00 µM control = 100.00, read-out: endo.cyto.24hr) of 102%. It also gave an activity at 100 µM ([1]; 100.00 µM, 0.00 µM control = 100.00, read-out: endo.mito.24hr) of 102%, an activity at 100 µM ([1]; 100.00 µM, 0.00 µM control = 100.00, read-out: endo.mitoint.24hr) of 99.3% and an activity at 100 µM ([1]; 100.00 µM, 0.00 µM control = 100.00, read-out: endo.nma.24hr) of 96.5%. For the same compound, the viability at 100 µM ([1]; 100.00 µM, 0.00 µM control = 100.00, read-out: endo.tc.24hrs) was 102%, the minimal effective concentration ([1]; read-out: endo.cyto.24hr POD) was 100 µM and the minimal effective concentration ([1]; read-out: endo.mito.24hr POD) was 100 µM. The minimal effective concentration ([1]; read-out: endo.mitoint.24hr POD) was 100 µM, the minimal effective concentration ([1]; read-out: endo.nma.24hr POD) was 100 µM and the minimal effective concentration ([1]; read-out: endo.tc.24hrs POD) was 100 µM. It also gave an activity at 0.01 µM [2, 3] of 100%, an activity at 0.01 µM [2, 4] of 98.8% and an activity at 0.01 µM [2, 5] of 108%. For the same compound, the activity at 0.01 µM [2, 6] was 108%, the activity at 0.1 µM [2, 3] was 99.3% and the activity at 0.1 µM [2, 4] was 101%. The activity at 0.1 µM [2, 5] was 147%, the activity at 0.1 µM [2, 6] was 147% and the activity at 1 µM [2, 3] was 97.8%. For the same compound, the activity at 1 µM [2, 4] was 116%, the activity at 1 µM [2, 5] was 132% and the activity at 1 µM [2, 6] was 128%. It also gave an activity at 10 µM [2, 3] of 90.4%, an activity at 10 µM [2, 4] of 99.7% and an activity at 10 µM [2, 5] of 90.3%. For the same compound, the activity at 10 µM [2, 6] was 93.2%, the activity at 100 µM [2, 3] was 74.5% and the activity at 100 µM [2, 4] was 59.6%. It also gave an activity at 100 µM [2, 5] of 61.5%, an activity at 100 µM [2, 6] of 62% and a minimal effective concentration ([2]; read-out: huvec.mtl.18hr POD) of 10.7 µM. For the same compound, the minimal effective concentration ([2]; read-out: huvec.tlps.18hr POD) was 37.4 µM, the minimal effective concentration ([2]; read-out: huvec.tta.18hr POD) was 100 µM and the minimal effective concentration ([2]; read-out: huvec.ttl.18hr POD) was 100 µM.

For `Clc1ccc(Cl)c(-c2c(Cl)ccc(Cl)c2Cl)c1Cl` [(-)-PCB 136, 2,2′,3,3′,6,6′-hexachlorobiphenyl], the endo.cyto.24hr ([1]; 0.01 µM) was 97.58, the endo.mito.24hr ([1]; 0.01 µM) was 98.40 and the endo.mitoint.24hr ([1]; 0.01 µM) was 92.73. The endo.nma.24hr ([1]; 0.01 µM) was 101.21, the endo.tc.24hrs ([1]; 0.01 µM) was 97.58 and the endo.cyto.24hr ([1]; 0.10 µM) was 98.68. It also gave an endo.mito.24hr ([1]; 0.10 µM) of 99.17, an endo.mitoint.24hr ([1]; 0.10 µM) of 90.73 and an endo.nma.24hr ([1]; 0.10 µM) of 99.07. The endo.tc.24hrs ([1]; 0.10 µM) was 98.68, the endo.cyto.24hr ([1]; 1.00 µM) was 92.98 and the endo.mito.24hr ([1]; 1.00 µM) was 93.57. The endo.mitoint.24hr ([1]; 1.00 µM) was 89.65, the endo.nma.24hr ([1]; 1.00 µM) was 102.49 and the endo.tc.24hrs ([1]; 1.00 µM) was 92.98. The endo.cyto.24hr ([1]; 10.00 µM) was 96.25, the endo.mito.24hr ([1]; 10.00 µM) was 96.58 and the endo.mitoint.24hr ([1]; 10.00 µM) was 86.88. It also gave an endo.nma.24hr ([1]; 10.00 µM) of 101.21, an endo.tc.24hrs ([1]; 10.00 µM) of 96.25 and an endo.cyto.24hr ([1]; 100.00 µM) of 49.24. The endo.mito.24hr ([1]; 100.00 µM) was 43.24, the endo.mitoint.24hr ([1]; 100.00 µM) was 53.93 and the endo.nma.24hr ([1]; 100.00 µM) was 111.21. It also gave an endo.tc.24hrs ([1]; 100.00 µM) of 54.61, a huvec.mtl.18hr ([2]; concentration 0.01 µM) of 89.52 and a huvec.tlps.18hr ([2]; concentration 0.01 µM) of 87.45. The huvec.tta.18hr ([2]; concentration 0.01 µM) was 86.96, the huvec.ttl.18hr ([2]; concentration 0.01 µM) was 85.21 and the huvec.mtl.18hr ([2]; concentration 0.10 µM) was 105.15. It also gave a huvec.tlps.18hr ([2]; concentration 0.10 µM) of 104.95, a huvec.tta.18hr ([2]; concentration 0.10 µM) of 96.50 and a huvec.ttl.18hr ([2]; concentration 0.10 µM) of 89.39. It also gave a huvec.mtl.18hr ([2]; concentration 1.00 µM) of 101.33, a huvec.tlps.18hr ([2]; concentration 1.00 µM) of 99.50 and a huvec.tta.18hr ([2]; concentration 1.00 µM) of 114.69. The huvec.ttl.18hr ([2]; concentration 1.00 µM) was 103.47, the huvec.mtl.18hr ([2]; concentration 10.00 µM) was 94.11 and the huvec.tlps.18hr ([2]; concentration 10.00 µM) was 92.84. It also gave a huvec.tta.18hr ([2]; concentration 10.00 µM) of 112.35, a huvec.ttl.18hr ([2]; concentration 10.00 µM) of 101.40 and a huvec.mtl.18hr ([2]; concentration 100.00 µM) of 75.12. The huvec.tlps.18hr ([2]; concentration 100.00 µM) was 53.61, the huvec.tta.18hr ([2]; concentration 100.00 µM) was 117.52 and the huvec.ttl.18hr ([2]; concentration 100.00 µM) was 95.13.
